# Legend:
# [1] = system: NKM-1 (Acute Myeloid Leukemia); assay: combination Emax (second highest fraction inhibited in the dose matrix, 72 h); higher = more inhibition; extreme values may be limits of the assay
# Outline: (§1)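 Cell lines in DMEM/F12 or RPMI with 10% FBS were plated in 1536-well plates, held 24 hours at 37°C, 5% CO2, then given two-drug dose matrices for 72 hours (DMSO typically 0.2%). Viability was read by CellTiter-Glo 2.0 luminescence and scaled as inhibition from 0 (vehicle wells) to 1 (blank wells). Combination Emax is the second-highest inhibition in the matrix; Bliss excess is observed combination effect minus expected EA + EB − EA·EB, EA and EB being single-agent effects.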
# [2] = system: RL95-2 (Endometrial Carcinoma); assay: as above
# Outline: as §1
# [3] = system: OVTOKO (Ovarian Carcinoma); assay: as above
# Outline: as §1
# [4] = system: COLO-684 (Endometrial Carcinoma); assay: as above
# Outline: as §1
# CHL-1 (Melanoma) = assay: as above
# Outline: as §1
# [5] = system: SNU-175 (Colorectal Carcinoma); assay: as above
# Outline: as §1
# [6] = system: NCI-H1755 (Lung Adenocarcinoma); assay: as above
# Outline: as §1
# [7] = system: NCI-H1623 (Lung Adenocarcinoma); assay: as above
# Outline: as §1
# [8] = system: OCI-AML5 (Acute Myeloid Leukemia); assay: as above
# Outline: as §1
# [9] = system: FLO-1 (Esophageal Adenocarcinoma); assay: as above
# Outline: as §1
# [10] = system: BALL-1 (B-Lymphoblastic Leukemia); assay: as above
# Outline: as §1
# [11] = system: EB-3 (Burkitt's Lymphoma); assay: as above
# Outline: as §1
# [12] = system: LOUCY (T-Lymphoblastic Leukemia); assay: as above
# Outline: as §1
# [13] = system: RPMI-8866 (Chronic Myelogenous Leukemia); assay: as above
# Outline: as §1
# [14] = system: HTC-C3 (Thyroid Gland Carcinoma); assay: as above
# Outline: as §1
# 786-0 (Kidney Carcinoma) = assay: as above
# Outline: as §1
# [15] = system: NCI-H1563 (Lung Adenocarcinoma); assay: as above
# Outline: as §1
# [16] = system: Caov-3 (Ovarian Carcinoma); assay: as above
# Outline: as §1
# [17] = system: NKM-1 (Acute Myeloid Leukemia); assay: Bliss excess, mean over the matrix (fraction); higher = more synergy
# Outline: as §1
# HuO-3N1 (Osteosarcoma) = assay: as above
# Outline: as §1
# 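Wherever Bliss excess, mean over the matrix is given: after 72 h of two-drug dosing.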
SMILES,combination Emax [1],combination Emax [2],combination Emax [3],combination Emax [4],combination Emax (CHL-1 (Melanoma)),combination Emax [5],combination Emax [6],combination Emax [7],combination Emax [8],combination Emax [9],combination Emax [10],combination Emax [11],combination Emax [12],combination Emax [13],combination Emax [14],combination Emax (786-0 (Kidney Carcinoma)),combination Emax [15],combination Emax [16],Bliss excess [17],Bliss excess (HuO-3N1 (Osteosarcoma))
"COc1cccc(OCCCN)c1-c1cc(Nc2cnc(C#N)cn2)n[nH]1 [Prexasertib] + CN(C)CCCOc1ccc(-c2ccc3ncc4c(c3c2)n(C2CCOCC2)c(=O)n4C)cn1 [AZD0156] (first compound max 1 µM, 7x7, partner max 1 µM)",0.956,0.888,0.647,0.854,0.814,0.632,0.936,0.804,1,0.724,0.999,0.838,1,1,0.768,0.861,0.352,0.806,-0.0165,0.0092
"COc1cccc(OCCCN)c1-c1cc(Nc2cnc(C#N)cn2)n[nH]1 [Prexasertib] + C[C@@H]1COCCN1C2=NC(=NC(=C2)C3(CC3)[S@](=N)(=O)C)C4=C5C=CNC5=NC=C4 [AZD6738] (first compound max 1 µM, 7x7, partner max 10 µM)",0.938,0.898,0.516,0.864,0.884,0.616,0.912,0.827,0.988,0.763,0.998,0.83,1,1,0.842,0.901,0.262,0.785,-0.0583,0.0204
"COc1cccc(OCCCN)c1-c1cc(Nc2cnc(C#N)cn2)n[nH]1 [Prexasertib] + Cc1cc2ncnn2cc1Nc1ncc2c(n1)n(C1CCOCC1)c(=O)n2C [AZD7648] (first compound max 1 µM, 7x7, partner max 10 µM)",0.965,0.893,0.526,0.844,0.838,0.586,0.918,0.804,0.988,0.703,0.999,0.791,1,1,0.843,0.896,0.466,0.797,-0.0271,-0.0498
"COc1cccc(OCCCN)c1-c1cc(Nc2cnc(C#N)cn2)n[nH]1 [Prexasertib] + O=C(c1cc(Cc2n[nH]c(=O)c3ccccc23)ccc1F)N1CCN(C(=O)C2CC2)CC1 [Olaparib] (first compound max 1 µM, 7x7, partner max 10 µM)",0.902,0.882,0.52,0.707,0.838,0.527,0.907,0.813,0.991,0.677,0.994,0.694,1,1,0.751,0.869,0.27,0.855,-0.0706,-0.0658
"COc1cc2c(cc1OCCCCCOc1cc3c(cc1OC)C(=O)N1C=C(C)C[C@H]1C=N3)N=C[C@@H]1CC(C)=CN1C2=O [SG3199] + O=C(c1cc(Cc2n[nH]c(=O)c3ccccc23)ccc1F)N1CCN(C(=O)C2CC2)CC1 [Olaparib] (first compound max 0.001 µM, 7x7, partner max 10 µM)",0.663,0.264,0.111,0.0915,0.092,0.112,0.202,0.376,0.182,0.186,0.845,0.0944,0.12,0.263,0.246,0.0509,0.173,0.202,-0.0362,-0.0446
"CCc1c2c(nc3ccc(O)cc13)-c1cc3c(c(=O)n1C2)COC(=O)[C@]3(O)CC [SN-38] + CN(C)CCCOc1ccc(-c2ccc3ncc4c(c3c2)n(C2CCOCC2)c(=O)n4C)cn1 [AZD0156] (first compound max 0.3 µM, 7x7, partner max 1 µM)",0.973,0.424,0.194,0.473,0.567,0.478,0.752,0.822,0.998,0.664,1,0.748,0.759,0.982,0.764,0.884,0.441,0.977,0.033,-0.0592
"CC(=O)Nc1cccc(-n2c(=O)n(C3CC3)c(=O)c3c(Nc4ccc(I)cc4F)n(C)c(=O)c(C)c32)c1 [Trametinib] + Cc1nc(-c2cn3c(n2)-c2ccc(-c4cnn(C(C)(C)C(N)=O)c4)cc2OCC3)n(C(C)C)n1 [Taselisib] (first compound max 1 µM, 7x7, partner max 10 µM)",1,0.588,0.795,0.57,0.638,0.627,0.978,1,1,0.665,0.532,0.373,0.527,0.71,0.744,0.613,0.793,0.836,0.255,0.0402
"CC1(C)CCC(CN2CCN(c3ccc(C(=O)NS(=O)(=O)c4ccc(NCC5CCOCC5)c([N+](=O)[O-])c4)c(Oc4cnc5[nH]ccc5c4)c3)CC2)=C(c2ccc(Cl)cc2)C1 [Venetoclax] + C1CN(CCC1(C(=O)N[C@@H](CCO)C2=CC=C(C=C2)Cl)N)C3=NC=NC4=C3C=CN4 [Capivasertib] (first compound max 1 µM, 7x7, partner max 3 µM)",1,0.494,0.462,0.625,0.163,0.162,0.648,0.314,0.958,0.192,1,0.176,1,0.292,0.163,0.37,0.396,0.553,0.0228,-0.0347
"CC1(C)CCC(CN2CCN(c3ccc(C(=O)NS(=O)(=O)c4ccc(NCC5CCOCC5)c([N+](=O)[O-])c4)c(Oc4cnc5[nH]ccc5c4)c3)CC2)=C(c2ccc(Cl)cc2)C1 [Venetoclax] + C=CCn1c(=O)c2cnc(Nc3ccc(N4CCN(C)CC4)cc3)nc2n1-c1cccc(C(C)(C)O)n1 [AZD1775] (first compound max 1 µM, partner max 1 µM)",0.995,0.475,0.529,0.732,0.891,0.553,0.846,0.577,1,0.84,1,0.674,1,0.951,0.341,0.582,0.371,0.801,-0.0087,-0.0172
"CC1(C)CCC(CN2CCN(c3ccc(C(=O)NS(=O)(=O)c4ccc(NCC5CCOCC5)c([N+](=O)[O-])c4)c(Oc4cnc5[nH]ccc5c4)c3)CC2)=C(c2ccc(Cl)cc2)C1 [Venetoclax] + CCN(CCO)CCCOc1ccc2c(Nc3cc(CC(=O)Nc4cccc(F)c4)[nH]n3)ncnc2c1 [AZD2811] (first compound max 1 µM, 7x7, partner max 1 µM)",1,0.593,0.263,0.19,0.531,0.912,0.678,0.211,1,0.359,1,0.319,1,0.601,0.121,0.159,0.193,0.892,0.0697,0.0175
"CC1(C)CCC(CN2CCN(c3ccc(C(=O)NS(=O)(=O)c4ccc(NCC5CCOCC5)c([N+](=O)[O-])c4)c(Oc4cnc5[nH]ccc5c4)c3)CC2)=C(c2ccc(Cl)cc2)C1 [Venetoclax] + CN(C)CCCOc1ccc(-c2ccc3ncc4c(c3c2)n(C2CCOCC2)c(=O)n4C)cn1 [AZD0156] (first compound max 1 µM, 7x7, partner max 1 µM)",0.959,0.135,0.385,0.211,0.27,0.128,0.654,0.262,0.901,0.339,1,0.343,1,0.0785,0.205,0.195,0.406,0.59,-0.0963,-0.0235
"CC1(C)CCC(CN2CCN(c3ccc(C(=O)NS(=O)(=O)c4ccc(NCC5CCOCC5)c([N+](=O)[O-])c4)c(Oc4cnc5[nH]ccc5c4)c3)CC2)=C(c2ccc(Cl)cc2)C1 [Venetoclax] + COc1cc(Nc2ncc3c(n2)-c2ccc(Cl)cc2C(c2c(F)cccc2OC)=NC3)ccc1C(=O)O [Alisertib] (first compound max 1 µM, 7x7, partner max 10 µM)",0.98,0.588,0.484,0.264,0.778,0.818,0.66,0.391,1,0.514,1,0.418,1,0.89,0.365,0.37,0.466,0.838,0.0087,-0.0154
